This note sets out measurements from patent US7105313B2, “Cell-based drug screens for regulators of gene expression” (Amgen Inc., priority 1996, dated 2006).

Structures are written as SMILES.

Assay [1] relates to LDLR gene expression. Put plainly: Northern hybridization of RNA from the LDLR-luciferase knock-in HepG2 cell line. The format is cell-based, human. The note with it: LDLR luciferase knock-in HepG2 cells. On the procedure: The LDLR targeting construct was introduced into HepG2 cells by electroporation. Following recovery, the cells were maintained in media supplemented 1 mg/ml G418 and 2 uM gancyclovir for 3-4 weeks until individual colonies were observed. These […] isolated and propagated as individual cultures for further characterization. Individual clones were expanded into 24 well tissue culture plates, and genomic DNA was prepared and analyzed by restriction digestion and Southern hybridization. […] This clone was expanded for further characterization and use as a reporter cell line for LDLR gene expression. To determine whether the expression of luciferase gene is regulated as the same way as the endogenous LDLR gene, RNA was prepared and analyzed by Northern hybridization. […] The cholesterol-dependent regulation is the hallmark of LDLR gene expression. As indicated, the LDLR mRNA was regulated by in the presence or absence of cholesterol, albeit in this case the LDLR mRNA level was reduced to half due to the loss of one allele, which was replaced by the luciferase gene. The use of the luciferase knock-in cell line for LDLR gene expression was further validated by the luciferase activity, which was also regulated by cholesterol as predicted.

Assay [2] concerns LDLR gene expression. Put plainly: Luciferase activity of the LDLR-luciferase knock-in HepG2 cell line. The format is cell-based, human. The note with it: LDLR luciferase knock-in HepG2 cells. As for the experimental part:
To determine whether the expression of luciferase gene is regulated as the same way as the endogenous LDLR gene, RNA was prepared and analyzed by Northern hybridization. […] The cholesterol-dependent regulation is the hallmark of LDLR gene expression. As indicated, the LDLR mRNA was regulated by in the presence or absence of cholesterol, albeit in this case the LDLR mRNA level was reduced to half due to the loss of one allele, which was replaced by the luciferase gene. The use of the luciferase knock-in cell line for LDLR gene expression was further validated by the luciferase activity, which was also regulated by cholesterol as predicted. • Aliquot 100 ul cell suspension (10^4–10^5 primary or cultured, differentiated cells) into each well of 96-well plate under sterile conditions • Add compound or extract to 10 uM final concentration • Incubate 6–18 hrs at 37° C. • Remove incubation media • Add 100 ul lysis/luciferin buffer containing 1.0% non-ionic detergent (Triton x-100), 530 uM ATP, 270 uM coA and 470 uM luciferin (Promega). • Measure luciferase-derived luminescence on automated Torcon AML-34 and 7710 Microplate Luminometer (Cambridge Technologies, Inc.) luminometers.

Consider `C[C@H](CCCC(C)(C)O)[C@H]1CC[C@H]2[C@@H]3CC=C4C[C@@H](O)CC[C@]4(C)[C@H]3CC[C@]12C` [25-hydroxycholesterol], for which the “luciferase mRNA” value with LDLR gene expression [1] (compared with lipid-depleted media, where mRNA was elevated) was “suppressed”.

Take `CC(C)CCC[C@@H](C)[C@H]1CC[C@H]2[C@@H]3CC=C4C[C@@H](O)CC[C@]4(C)[C@H]3CC[C@]12C` [cholesterol]: the “LDLR mRNA” value in the assay with LDLR gene expression [1] (presence or absence of cholesterol) is given as “regulated”. The luciferase activity entry in the assay with LDLR gene expression [2] is “regulated”.
